Results taken from patent US7776557B2, “Method for monitoring tocolytic treatment” (Diagnostic Technologies Ltd., priority 2006, dated 2010).

Tested on: PP13
Assay: PP13 level in maternal venous serum of pregnant women under tocolytic treatment, solid-phase sandwich ELISA
Format: in vivo, human
Details: Example V: repeated administrations, compared with normal
Description: In all experiments, PP13 was measured (blinded to pregnancy outcome) in maternal venous serum by solid-phase sandwich ELISA assay. PP13 level was calibrated according to standard curves prepared from calibrated standards of recombinant PP13. Concentrations are given in pg PP13/ml serum.
This clinical study was approved by the medical center internal review ethical committee, and all women enrolled in the study provided informed consent to allow the use of a small volume of their blood to determine the level of PP13.

In the case of `COC(=O)C1=C(C)NC(C)=C(C(=O)OC)C1c1ccccc1[N+](=O)[O-]` [nifedipine], the “area of elevated PP13 level above normal” value is reported as 5.8 times.
